Measurements taken from PubChem BioAssay AID1508604 (National Center for Advancing Translational Sciences (NCATS), 2020).

test system: CD-1 mouse liver cytosol, LC/MS substrate depletion half-life; assay: NCATS Mouse Liver Cytosol Stability Profiling; details: at 1 µM; higher = more stable
Protocol: Assay submitter (PI): Pranav Shah Ph.D. NIH Center for Advancing Translational Sciences 9800 Medical Center Dr, Rockville MD, 20850 Over the last few decades, chemists have become skilled at designing compounds that avoid cytochrome P (CYP) 450 mediated metabolism. Typical screening assays are performed in liver microsomal fractions and it is possible to overlook the contribution of cytosolic enzymes until much later in the drug discovery process. Few data exist on cytosolic enzyme-mediated metabolism and no reliable tools are available to chemists to help design away from such liabilities. In this study, we screened 1450 compounds for liver cytosol-mediated metabolic stability and extracted transformation rules that might help medicinal chemists in optimizing compounds with these liabilities. […] Matched molecular pairs analysis was performed in conjunction with qualitative-structure activity relationship modeling to identify chemical structure transformations affecting cytosolic stability. The transformation rules were prospectively validated on the test set. In addition, selected rules were validated on a diverse chemical library and the resulting pairs were experimentally tested to confirm whether the identified transformations could be generalized. The validation results, comprising nearly 250 library compounds and corresponding half-life data, are made publicly available. The datasets were also used to generate in silico classification models, based on different molecular descriptors and machine learning methods, to predict cytosol-mediated liabilities. To the best of our knowledge, this is the first systematic in silico effort to address cytosolic enzyme-mediated liabilities (Shah 2020). Reference: Shah, P., Siramshetty, V.B., Zakharov, A.V. et al. Predicting liver cytosol stability of small molecules. J Cheminform 12, 21 (2020). https://doi.org/10.1186/s13321-020-00426-7
Compounds are classified as unstable (t 1/2 < 30 min) or stable (t 1/2 > 30 min). […] Reference: 1. Shah, P. et al. An Automated High-Throughput Metabolic Stability Assay Using an Integrated High-Resolution Accurate Mass Method and Automated Data Analysis Software. Drug Metab Dispos 44, 1653-1661 (2016). PMID 27417180

Row | SMILES | half-life [h]
1 | O=C1OCC2(CCN(Cc3ccn[nH]3)C2)N1CCN1CCOCC1 (centres undefined) | > 2
2 | Cc1ccc(-c2ccc3nnc(CNC(=O)c4ccc(Cl)cc4)n3n2)cc1 | > 2
3 | O=C1[C@H]2CN(Cc3ccc(Cl)c(F)c3)C[C@H]2C(=O)N1CCc1ccccc1 | 0.621
4 | CCN1c2cc(C(=O)Nc3ccc(Cl)cc3)ccc2C(=O)N2CCCCCC21 (centres undefined) | 0.935
5 | CN1c2cc(C(=O)Nc3ccc(Cl)c(F)c3)ccc2C(=O)N2CCCCCC21 (centres undefined) | 0.383
6 | COc1cccc(C(=O)NCC2CCCN(Cc3ccn[nH]3)C2)c1OC (centres undefined) | > 2
7 | CN1c2cc(C(=O)Nc3ccc(Cl)c(F)c3)ccc2C(=O)N2CCCCC21 (centres undefined) | 0.524
8 | O=C1[C@H]2CN(Cc3ccc(Cl)c(F)c3)C[C@H]2C(=O)N1Cc1ccc2c(c1)OCO2 | 0.921
9 | CN(C1CCOCC1)C1CCN(C(=O)c2ccn[nH]2)CC1 | > 2
10 | O=C(Nc1cccc(-c2nnc3n2CCCC3)c1)c1ccn[nH]1 | > 2
11 | Cc1cccc(-c2noc([C@@H]3C[C@@H](O)CN3Cc3ccc(Cl)cc3)n2)c1 | 0.394
12 | O=C1NC2(CCN(C(=O)c3ccc(Cl)c(F)c3)CC2)CC1c1ccccc1 (centres undefined) | 1.43
13 | CCN1c2cc(C(=O)Nc3ccc(Cl)c(F)c3)ccc2C(=O)N2CCCCCC21 (centres undefined) | 0.904
14 | CCOc1cc(=O)n2c(c1C(=O)Nc1ccc(Cl)c(F)c1)CCCC2 | 1.34
15 | CCN1c2cc(C(=O)Nc3ccc(Cl)cc3)ccc2C(=O)N2CCCCC21 (centres undefined) | 0.429
16 | Cc1noc(-c2nc(-c3ccc(Cl)cc3)no2)n1 | 0.26
17 | COCC1CN(Cc2ccc(Cl)c(F)c2)CC12CCNCC2 (centres undefined) | > 2
18 | CCN1c2cc(C(=O)Nc3ccc(Cl)c(F)c3)ccc2C(=O)N2CCCCC21 (centres undefined) | 0.412
19 | CN1c2cc(C(=O)Nc3ccc(Cl)cc3)ccc2C(=O)N2CCCCC21 (centres undefined) | 1.39
20 | COc1cc(=O)n2c(c1C(=O)Nc1ccc(Cl)c(F)c1)CCCC2 | 1.47
21 | O=C1NC2(CCN(C(=O)c3ccc(Cl)cc3)CC2)CC1c1ccccc1 (centres undefined) | > 2
22 | O=C(Nc1ccc(-c2nnc3n2CCCC3)cc1)c1ccn[nH]1 | > 2
23 | COCC1CN(C(C)=O)CC12CCN(Cc1ccc(Cl)c(F)c1)CC2 (centres undefined) | 1.36
24 | CN(C1CCOCC1)C1CCN(C(=O)c2ccc(Cl)cc2)CC1 | > 2

The remaining lines, values ahead:

Row | half-life [h] | SMILES
25 | > 2 | Cn1c([C@H]2CCN(Cc3ccc(Cl)cc3)C2)nc2ccccc21
26 | > 2 | COCC1CN(C(C)=O)CC12CCN(Cc1ccc(Cl)cc1)CC2 (centres undefined)
27 | 1.24 | CN(Cc1cccnc1)c1nc2c(c(=O)[nH]1)CCN(Cc1ccc(Cl)cc1)CC2
28 | 1.95 | O=C(Nc1ccc(-c2nnc3n2CCCC3)cc1)c1ccc(Cl)cc1
29 | > 2 | CN(C)c1nc2c(c(=O)[nH]1)CCN(Cc1ccc(Cl)c(F)c1)CC2
30 | 0.792 | O=C1[C@H]2CN(Cc3ccc(Cl)cc3)C[C@H]2C(=O)N1CCc1ccccc1
31 | 1.91 | CN(C)c1nc2c(c(=O)[nH]1)CCN(Cc1ccc(Cl)cc1)CC2
32 | > 2 | CN1CCN(c2nc3c(c(=O)[nH]2)CCN(Cc2ccc(Cl)cc2)CC3)CC1
33 | > 2 | Cc1ccc2nc(CO[C@H]3CN(Cc4ccc(Cl)cc4)C[C@H]3F)[nH]c2c1
34 | 1.21 | OCC1(CN2CCCC2)CCN(Cc2ccc(Cl)c(F)c2)CC1
35 | 0.908 | OCC1(CN2CCCC2)CCN(Cc2ccc(Cl)cc2)CC1
36 | 1.94 | CN1C(=O)CO[C@H]2CN(Cc3ccc(Cl)cc3)C[C@H]21
37 | > 2 | CN1CCN(c2nc3c(c(=O)[nH]2)CCN(Cc2ccc(Cl)c(F)c2)CC3)CC1
38 | 1.57 | CCOc1cc(=O)n2c(c1C(=O)Nc1ccc(Cl)cc1)CCCC2
39 | > 2 | COCC1CN(Cc2ccc(Cl)cc2)CC12CCNCC2 (centres undefined)
40 | > 2 | O=C1OCC2(CCN(Cc3ccc(Cl)cc3)C2)N1CCN1CCOCC1 (centres undefined)
41 | > 2 | COc1cccc(C(=O)NCC2CCCN(Cc3ccc(Cl)cc3)C2)c1OC (centres undefined)
42 | > 2 | O=c1[nH]c(N2CCOCC2)nc2c1CCN(Cc1ccc(Cl)cc1)CC2
43 | > 2 | COc1cc(=O)n2c(c1C(=O)Nc1ccc(Cl)cc1)CCCC2
44 | 1.37 | COc1ccc(CN2C[C@H]3CN(Cc4ccc(Cl)cc4)CCN3C2=O)cc1
45 | 0.945 | FC(F)(F)c1ccc2nc([C@H]3CCN(Cc4ccc(Cl)cc4)C3)[nH]c2c1
46 | 1.11 | O=C1[C@H]2CN(Cc3ccc(Cl)cc3)C[C@H]2C(=O)N1Cc1ccc2c(c1)OCO2
47 | 1.54 | O=c1[nH]c(N2CCOCC2)nc2c1CCN(Cc1ccc(Cl)c(F)c1)CC2
48 | 0.941 | O=C(Nc1cccc(-c2nnc3n2CCCC3)c1)c1ccc(Cl)cc1
49 | 1.06 | CN1c2cc(C(=O)Nc3ccc(Cl)cc3)ccc2C(=O)N2CCCCCC21 (centres undefined)
